# Experimental data reported in patent EP4617278A1, “NUCLEOTIDE ANALOG, AND COMPOSITION AND USE THEREOF” (priority 2022, dated 2024).
# System: SARS-CoV-2 replicon
# Assay type: cell-based
# Settings: read-out: SARS-CoV-2 Replicon (Huh-7cell) EC50
row,Molecule,EC50
1,"CCCCC/C=C\C/C=C\CCCCCCCCOC(=O)[C@H](C)NP(=O)(OCOC(=O)C(C)(C)C)OC[C@H]1O[C@@](C#N)(c2ccc3c(N)ncnn23)[C@H](OC(=O)C(C)C)[C@@H]1OC(=O)C(C)C (stereo partly drawn) [Compound 51, (2R,3R,4R,5R)-2-(4-aminopyrrolo[2,1-f][1,2,4]triazin-7-yl)-2-cyano-5-((((((S)-1-(((9Z,12Z)-octadeca-9,12-dien-1-yl)oxy)-1-oxopropan-2-yl)amino)((pivaloyloxy)methoxy)phosphoryl)oxy)methyl)tetrahydrofuran-3,4-diyl bis(2-methylpropionate)]",50 to 500 nM
2,"CCCCC/C=C\C/C=C\CCCCCCCCOC(=O)[C@H](C)N[P@](=O)(OCOC(=O)OC(C)C)OC[C@H]1O[C@@](C#N)(c2ccc3c(N)ncnn23)[C@H](OC(=O)C(C)C)[C@@H]1OC(=O)C(C)C [Compound 52a, (2R,3R,4R,5R)-2-(4-aminopyrrolo[2,1-f][1,2,4]triazin-7-yl)-2-cyano-5-((((R)-(((isopropoxycarbonyl)oxy)methoxy)(((S)-1-(((9Z,12Z)-octadeca-9,12-dien-1-yl)oxy)-1-oxopropan-2-yl)amino)phosphoryl)oxy)methyl)tetrahydrofuran-3,4-diyl bis(2-methylpropionate)]",50 to 500 nM
3,"CCCCC/C=C\C/C=C\CCCCCCCCOC(=O)[C@H](C)N[P@@](=O)(OCOC(=O)OC(C)C)OC[C@H]1O[C@@](C#N)(c2ccc3c(N)ncnn23)[C@H](OC(=O)C(C)C)[C@@H]1OC(=O)C(C)C [Compound 52b, (2R,3R,4R,5R)-2-(4-aminopyrrolo[2,1-f][1,2,4]triazin-7-yl)-2-cyano-5-((((S)-(((isopropoxycarbonyl)oxy)methoxy)(((S)-1-(((9Z,12Z)-octadeca-9,12-dien-1-yl)oxy)-1-oxopropan-2-yl)amino)phosphoryl)oxy)methyl)tetrahydrofuran-3,4-diyl bis(2-methylpropionate)]",50 to 500 nM
4,"CCC(CC)COC(=O)[C@H](Cc1ccccc1)N[P@@](=O)(OC[C@H]1O[C@@](C#N)(c2ccc3c(N)ncnn23)[C@H](OC(=O)C(C)C)[C@@H]1OC(=O)C(C)C)Oc1ccc(C(C)(C)C)cc1 [Compound 53a, (2R,3R,4R,5R)-2-(4-aminopyrrolo[2,1-f][1,2,4]triazin-7-yl)-2-cyano-5-((((((S)-1-(2-ethylbutoxy)-1-oxo-3-phenylpropan-2-yl)amino)((R)-4-tert-butylphenoxy)phosphoryl)oxy)methyl)tetrahydrofuran-3,4-diyl bis(2-methylpropionate)]",50 to 500 nM
5,"CCC(CC)COC(=O)[C@H](Cc1ccccc1)N[P@](=O)(OC[C@H]1O[C@@](C#N)(c2ccc3c(N)ncnn23)[C@H](OC(=O)C(C)C)[C@@H]1OC(=O)C(C)C)Oc1ccc(C(C)(C)C)cc1 [Compound 53b, (2R,3R,4R,5R)-2-(4-aminopyrrolo[2,1-f][1,2,4]triazin-7-yl)-2-cyano-5-((((((S)-1-(2-ethylbutoxy)-1-oxo-3-phenylpropan-2-yl)amino)((S)-4-tert-butylphenoxy)phosphoryl)oxy)methyl)tetrahydrofuran-3,4-diyl bis(2-methylpropionate)]",10 to 50 nM
6,"CC(C)C(=O)O[C@H]1[C@@H](OC(=O)C(C)C)[C@](C#N)(c2ccc3c(N)ncnn23)O[C@@H]1CO[P@](=O)(N[C@@H](CC(=O)OC1CCC1)C(=O)OC1CCC1)Oc1ccccc1 [Compound 54a, (2R,3R,4R,5R)-2-(4-aminopyrrolo[2,1-f][1,2,4]triazin-7-yl)-2-cyano-5-((((R)-(((S)-1,4-dicyclobutoxy-1,4-dioxobutan-2-yl)amino)(phenoxy)phosphoryl)oxy)methyl)tetrahydrofuran-3,4-diyl bis(2-methylpropionate)]",10 to 50 nM
7,"CC(C)C(=O)O[C@H]1[C@@H](OC(=O)C(C)C)[C@](C#N)(c2ccc3c(N)ncnn23)O[C@@H]1CO[P@@](=O)(N[C@@H](CC(=O)OC1CCC1)C(=O)OC1CCC1)Oc1ccccc1 [Compound 54b, (2R,3R,4R,5R)-2-(4-aminopyrrolo[2,1-f][1,2,4]triazin-7-yl)-2-cyano-5-((((S)-(((S)-1,4-dicyclobutoxy-1,4-dioxobutan-2-yl)amino)(phenoxy)phosphoryl)oxy)methyl)tetrahydrofuran-3,4-diyl bis(2-methylpropionate)]",< 5 nM
8,"CCC(CC)COC(=O)C[C@H](N[P@@](=O)(OC[C@H]1O[C@@](C#N)(c2ccc3c(N)ncnn23)[C@H](OC(=O)C(C)C)[C@@H]1OC(=O)C(C)C)Oc1ccccc1)C(=O)OCC(CC)CC [Compound 62a, (2R,3R,4R,5R)-2-(4-aminopyrrolo[2,1-f][1,2,4]triazin-7-yl)-2-cyano-5-((((R)-(((S)-1,4-bis(2-ethylbutoxy)-1,4-dioxobutan-2-yl)amino)(phenoxy)phosphoryl)oxy)methyl)tetrahydrofuran-3,4-diyl bis(2-methylpropionate)]",50 to 500 nM
9,"CCC(CC)COC(=O)C[C@H](N[P@](=O)(OC[C@H]1O[C@@](C#N)(c2ccc3c(N)ncnn23)[C@H](OC(=O)C(C)C)[C@@H]1OC(=O)C(C)C)Oc1ccccc1)C(=O)OCC(CC)CC [Compound 62b, (2R,3R,4R,5R)-2-(4-aminopyrrolo[2,1-f][1,2,4]triazin-7-yl)-2-cyano-5-((((S)-(((S)-1,4-bis(2-ethylbutoxy)-1,4-dioxobutan-2-yl)amino)(phenoxy)phosphoryl)oxy)methyl)tetrahydrofuran-3,4-diyl bis(2-methylpropionate)]",10 to 50 nM
10,CC(C)C(=O)O[C@H]1[C@@H](OC(=O)C(C)C)[C@](C#N)(c2ccc3c(N)ncnn23)O[C@@H]1CO[P@](=O)(N[C@@H](Cc1ccccc1)C(=O)OC1CCC1)Oc1ccccc1 [Compound 63a],10 to 50 nM
11,"CC(C)C(=O)O[C@H]1[C@@H](OC(=O)C(C)C)[C@](C#N)(c2ccc3c(N)ncnn23)O[C@@H]1CO[P@@](=O)(N[C@@H](Cc1ccccc1)C(=O)OC1CCC1)Oc1ccccc1 [Compound 63b, (2R,3R,4R,5R)-2-(4-aminopyrrolo[2,1-f][1,2,4]triazin-7-yl)-2-cyano-5-((((S)-(((S)-1-cyclobutoxy-1-oxo-3-phenylpropan-2-yl)amino)(phenoxy)phosphoryl)oxy)methyl)tetrahydrofuran-3,4-diyl bis(2-methylpropionate)]",< 5 nM
12,"COC(C)(C)COC(=O)[C@H](Cc1ccccc1)N[P@@](=O)(OC[C@H]1O[C@@](C#N)(c2ccc3c(N)ncnn23)[C@H](OC(=O)C(C)C)[C@@H]1OC(=O)C(C)C)Oc1ccccc1 [Compound 64a, (2R,3R,4R,5R)-2-(4-aminopyrrolo[2,1-f][1,2,4]triazin-7-yl)-2-cyano-5-((((R)-(((S)-1-(2-methoxy-2-methylpropoxy)-1-oxo-3-phenylpropan-2-yl)amino)(phenoxy)phosphoryl)oxy)methyl)tetrahydrofuran-3,4-diyl bis(2-methylpropionate)]",< 5 nM
13,"COC(C)(C)COC(=O)[C@H](Cc1ccccc1)N[P@](=O)(OC[C@H]1O[C@@](C#N)(c2ccc3c(N)ncnn23)[C@H](OC(=O)C(C)C)[C@@H]1OC(=O)C(C)C)Oc1ccccc1 [Compound 64b, (2R,3R,4R,5R)-2-(4-aminopyrrolo[2,1-f][1,2,4]triazin-7-yl)-2-cyano-5-((((S)-(((S)-1-(2-methoxy-2-methylpropoxy)-1-oxo-3-phenylpropan-2-yl)amino)(phenoxy)phosphoryl)oxy)methyl)tetrahydrofuran-3,4-diyl bis(2-methylpropionate)]",< 5 nM
14,"CC(C)OC(=O)OCOP(=O)(OCOC(=O)OC(C)C)OC[C@H]1O[C@@](C#N)(c2c(Br)cc3c(N)ncnn23)[C@H](OC(=O)C(C)C)[C@@H]1OC(=O)C(C)C [Compound 65, (2R,3R,4R,5R)-2-(4-amino-6-bromopyrrolo[2,1-f][1,2,4]triazin-7-yl)-5-(((bis(((isopropoxycarbonyl)oxy)methoxy)phosphoryl)oxy)methyl)-2-cyanotetrahydrofuran-3,4-diyl bis(2-methylpropionate)]",50 to 500 nM
15,"(2R,3R,4R,5R)-2-(4-aminopyrrolo[2,1-f][1,2,4]triazin-7-yl)-2-cyano-5-((((R)-(((S)-1-(2-ethylbutoxy)-1-oxopropan-2-yl)amino)(((isopropoxycarbonyl)oxy)methoxy)phosphoryl)oxy)methyl)tetrahydrofuran-3,4-diyl diacetate [Compound 5a]",50 to 500 nM
16,"(2R,3R,4R,5R)-2-(4-aminopyrrolo[2,1-f][1,2,4]triazin-7-yl)-2-cyano-5-((((R)-(((S)-1-isopropoxy-1-oxopropan-2-yl)amino)(((isopropoxycarbonyl)oxy)methoxy)phosphoryl)oxy)methyl)tetrahydrofuran-3,4-diyl diacetate [Compound 1a]",10 to 50 nM
17,"(2R,3R,4R,5R)-2-(4-aminopyrrolo[2,1-f][1,2,4]triazin-7-yl)-2-cyano-5-((((S)-(((S)-1-(2-ethylbutoxy)-1-oxopropan-2-yl)amino)(((isopropoxycarbonyl)oxy)methoxy)phosphoryl)oxy)methyl)tetrahydrofuran-3,4-diyl diacetate [Compound 5b]",5 to 10 nM
18,"(2R,3R,4R,5R)-2-(4-aminopyrrolo[2,1-f][1,2,4]triazin-7-yl)-2-cyano-5-((((S)-(((S)-1-isopropoxy-1-oxopropan-2-yl)amino)(((isopropoxycarbonyl)oxy)methoxy)phosphoryl)oxy)methyl)tetrahydrofuran-3,4-diyl diacetate [Compound 1b]",5 to 10 nM
19,"(2R,3R,4R,5R)-2-(4-aminopyrrolo[2,1-f][1,2,4]triazin-7-yl)-5-((((bis(((isopropoxycarbonyl)oxy)methoxy))phosphoryl)oxy)methyl)-2-cyanotetrahydrofuran-3,4-diyldiisopropyl bis(carbonate) [Compound 28]",10 to 50 nM
